Laboratory results from PubChem BioAssay (NCI).
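Compound exposure: 48 hours, 5 concentrations, 96-well plates. The concentration for 50% growth inhibition is given as GI50. Definition used: TGI = concentration required for complete inhibition of growth.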

What was measured:
Test in all cases: DTP human tumour cell line panel, 48 h
[1] = tested on: NCI/ADR-RES ovarian
[2] = tested on: UO-31 renal
[3] = tested on: OVCAR-5 ovarian
[4] = tested on: SN12C renal
[5] = tested on: SF-295 CNS
[6] = tested on: SK-MEL-2 melanoma
[7] = tested on: SF-539 CNS
[8] = tested on: OVCAR-3 ovarian
[9] = tested on: DU-145 prostate
[10] = tested on: NCI-H522 lung

`COc1ccc(C(=O)COc2cccc(/C=C3\CSc4ccccc4C3=O)c2)cc1` showed a GI50 [1] of 3.08 µM, a TGI [1] of 9.64 µM and a GI50 [2] of 1.69 µM. It also gave a TGI [2] of 3.46 µM, a GI50 [3] of 2.18 µM and a TGI [3] of 4.77 µM. For the same compound, the GI50 [4] was 2.63 µM, the TGI [4] was 8.31 µM and the GI50 [5] was 1.87 µM. The TGI [5] was 3.77 µM, the GI50 [6] was 1.86 µM and the TGI [6] was 3.49 µM. For the same compound, the GI50 [7] was 2.95 µM, the TGI [7] was 8.51 µM and the GI50 [8] was 1.88 µM. For the same compound, the TGI [8] was 3.65 µM, the GI50 [9] was 2.53 µM and the TGI [9] was 5.4 µM. The GI50 [10] was 1.73 µM and the TGI [10] was 3.86 µM.
`c1cc(CCN2CCCCC2)ccn1` showed a TGI [1] greater than 100 µM, a TGI [2] greater than 100 µM and a TGI [3] greater than 100 µM. It also gave a TGI [4] greater than 100 µM, a TGI [5] greater than 100 µM and a TGI [6] greater than 100 µM. For the same compound, the TGI [7] was greater than 100 µM, the TGI [8] was greater than 100 µM and the TGI [9] was greater than 100 µM. The TGI [10] was greater than 100 µM.
Compound `CC(C)(O)C1CCC(Nc2ccc3ncc(-c4cccc(C(F)(F)F)c4)n3n2)CC1` (centres undefined) has a GI50 [1] of 2.7 µM, a TGI [1] of 19.5 µM and a GI50 [2] of 1.07 µM. For the same compound, the TGI [2] was 11 µM, the GI50 [3] was 2.92 µM and the TGI [3] was greater than 100 µM. It also gave a GI50 [4] of 3.17 µM, a TGI [4] of 17 µM and a GI50 [5] of 1.66 µM. For the same compound, the TGI [5] was 4.67 µM, the GI50 [6] was 2.13 µM and the TGI [6] was 4.82 µM. For the same compound, the GI50 [7] was 1.77 µM, the TGI [7] was 11.2 µM and the GI50 [8] was 2.99 µM. It also gave a TGI [8] of 13.3 µM, a GI50 [9] of 3.52 µM and a TGI [9] of 14.8 µM. The GI50 [10] was 1.73 µM and the TGI [10] was 5.92 µM.
Work on `CCc1ccccc1N1CCN(C(=O)c2cc(OC)c(OC)c(OC)c2)CC1` yielded a TGI [1] of 1.63 µM, a TGI [2] of 63.4 µM and a TGI [3] greater than 100 µM. For the same compound, the TGI [4] was greater than 100 µM, the TGI [5] was 0.0341 µM and the TGI [6] was 2.78 µM. The TGI [7] was 0.12 µM, the TGI [8] was 0.463 µM and the TGI [9] was 0.715 µM. For the same compound, the TGI [10] was 0.029 µM.
With `COc1cc(C(O)c2nc3ccccc3s2)cc(OC)c1OC` (centres undefined) the GI50 [1] was 8.96 µM, the TGI [1] was greater than 100 µM and the GI50 [2] was 6.2 µM. For the same compound, the TGI [2] was greater than 100 µM, the GI50 [3] was greater than 100 µM and the TGI [3] was greater than 100 µM. It also gave a GI50 [4] greater than 100 µM, a TGI [4] greater than 100 µM and a GI50 [5] of 6.29 µM. For the same compound, the TGI [5] was greater than 100 µM, the GI50 [6] was greater than 100 µM and the TGI [6] was greater than 100 µM. For the same compound, the GI50 [7] was greater than 100 µM, the TGI [7] was greater than 100 µM and the GI50 [8] was 88.9 µM. For the same compound, the TGI [8] was greater than 100 µM, the GI50 [9] was greater than 100 µM and the TGI [9] was greater than 100 µM. The GI50 [10] was 29.2 µM and the TGI [10] was greater than 100 µM.
With `COc1ccc(C(=O)/C=C/c2c(C(F)(F)F)nc3sccn23)cc1OC` the GI50 [1] was 1.88 µM, the TGI [1] was 10.6 µM and the GI50 [2] was 8.47 µM. The TGI [2] was greater than 100 µM, the GI50 [3] was 4.18 µM and the TGI [3] was 39.1 µM. It also gave a GI50 [4] of 2.98 µM, a TGI [4] greater than 100 µM and a GI50 [5] of 3.14 µM. For the same compound, the TGI [5] was 22.6 µM, the GI50 [6] was 4.08 µM and the TGI [6] was 92.5 µM. For the same compound, the GI50 [7] was 2.36 µM, the TGI [7] was 8.52 µM and the GI50 [8] was 2.12 µM. For the same compound, the TGI [8] was 6.14 µM, the GI50 [9] was 1.64 µM and the TGI [9] was 5 µM. The GI50 [10] was 2.91 µM and the TGI [10] was 80.7 µM.
`Cc1nc2sc(C(=O)Nc3cccc4ccccc34)c(N)c2cc1C(=O)/C=C/c1ccccc1` was tested, and the GI50 [1] was 0.173 µM, the TGI [1] was 0.593 µM and the GI50 [2] was 0.351 µM. For the same compound, the TGI [2] was 1.03 µM, the GI50 [3] was 0.813 µM and the TGI [3] was 2.61 µM. The GI50 [4] was 0.415 µM, the TGI [4] was 1.88 µM and the GI50 [5] was 0.514 µM. The TGI [5] was 3.89 µM, the GI50 [6] was 0.501 µM and the TGI [6] was greater than 39 µM. The GI50 [7] was 0.265 µM, the TGI [7] was 1.16 µM and the GI50 [8] was 0.181 µM. It also gave a TGI [8] of 0.593 µM, a GI50 [9] of 0.822 µM and a TGI [9] of 3.6 µM. The GI50 [10] was 0.215 µM and the TGI [10] was 2.11 µM.
For `O=C1c2ccc3c4c5ccc(c24)C(=O)N1CCCOCCCCOCCCNCc1ccc(cc1)CNCCCOCCCCOCCCN(C3=O)C5=O`, the GI50 [1] was 6.12 µM, the TGI [1] was 17.5 µM and the GI50 [2] was 1.1 µM. It also gave a TGI [2] of 5.12 µM, a GI50 [3] of 0.944 µM and a TGI [3] of 1.81 µM. The GI50 [4] was 0.816 µM, the TGI [4] was 1.53 µM and the GI50 [5] was 0.881 µM. The TGI [5] was 1.69 µM, the GI50 [6] was 0.861 µM and the TGI [6] was 1.73 µM. The GI50 [7] was 0.871 µM, the TGI [7] was 1.64 µM and the GI50 [8] was 0.766 µM. It also gave a TGI [8] of 1.79 µM, a GI50 [9] of 0.886 µM and a TGI [9] of 1.73 µM. The GI50 [10] was 0.854 µM and the TGI [10] was 1.79 µM.
With `Cc1ccc(/C=C2/SC(Nc3nc(-c4nc(NC5=NC(=O)/C(=C\c6ccc(C)cc6)S5)sc4C)c(C)s3)=NC2=O)cc1` the GI50 [1] was 0.435 µM, the TGI [1] was greater than 12.7 µM and the GI50 [2] was 6.03 µM. For the same compound, the TGI [2] was greater than 50 µM, the GI50 [3] was 8.05 µM and the TGI [3] was greater than 50 µM. For the same compound, the GI50 [4] was 0.957 µM, the TGI [4] was 18.3 µM and the TGI [5] was 0.874 µM. The GI50 [6] was 36.3 µM, the TGI [6] was greater than 50 µM and the GI50 [7] was 0.379 µM. The TGI [7] was 1.84 µM, the GI50 [8] was 0.329 µM and the TGI [8] was 1.51 µM. The GI50 [9] was 0.531 µM, the TGI [9] was greater than 9.82 µM and the GI50 [10] was 0.857 µM. The TGI [10] was 25.9 µM.
For `CN(C)c1ccc(-c2cc(-c3ccc(Nc4nc(Nc5ccccc5)nc(Nc5ccc(Cl)cc5)n4)cc3)nc(N)n2)cc1`, the GI50 [1] was 9.23 µM, the TGI [1] was greater than 100 µM and the GI50 [2] was 2.69 µM. The TGI [2] was greater than 100 µM, the GI50 [3] was 16.1 µM and the TGI [3] was 91.5 µM. For the same compound, the GI50 [4] was 7.52 µM, the TGI [4] was 42.2 µM and the GI50 [5] was 2.4 µM. The TGI [5] was 16.6 µM, the GI50 [6] was 7.18 µM and the TGI [6] was 43.5 µM. For the same compound, the GI50 [7] was 5.61 µM, the TGI [7] was 23.5 µM and the GI50 [8] was 5.77 µM. It also gave a TGI [8] of 28.9 µM, a GI50 [9] of 8.09 µM and a TGI [9] of 21.4 µM. For the same compound, the GI50 [10] was 5.8 µM and the TGI [10] was 38.7 µM.
With `C=CC1=C[C@@H]2[C@@H]3O[C@]4(CC[C@H](O4)[C@@H](C)C[C@@H](O)C3=O)C[C@H](O)C3=NCC[C@@]32CC1` the GI50 [1] was less than 0.00333 µM, the TGI [1] was 0.00511 µM and the GI50 [2] was less than 0.00333 µM. The TGI [2] was less than 0.00333 µM, the GI50 [3] was less than 0.00333 µM and the TGI [3] was 0.00513 µM. For the same compound, the GI50 [4] was less than 0.00333 µM, the TGI [4] was 0.011 µM and the GI50 [5] was less than 0.00333 µM. For the same compound, the TGI [5] was less than 0.00333 µM, the GI50 [6] was less than 0.00333 µM and the TGI [6] was 0.0117 µM. It also gave a GI50 [7] of less than 0.00333 µM, a TGI [7] of less than 0.00333 µM and a GI50 [8] of less than 0.00333 µM. For the same compound, the TGI [8] was less than 0.00333 µM, the GI50 [9] was less than 0.00333 µM and the TGI [9] was 0.00335 µM. The GI50 [10] was less than 0.00333 µM and the TGI [10] was 0.00353 µM.
Work on `O=C(CCCCCCSc1nc(-c2ccccc2)cc(-c2ccccc2)n1)NO` yielded a GI50 [1] of 0.699 µM, a TGI [1] of 6.15 µM and a GI50 [2] of 1.09 µM. It also gave a TGI [2] of 3.85 µM, a GI50 [3] of 1.84 µM and a TGI [3] of 7.92 µM. It also gave a GI50 [4] of 2.9 µM, a TGI [4] of 10.5 µM and a GI50 [5] of 2.18 µM. The TGI [5] was 5.78 µM, the GI50 [6] was 3.94 µM and the TGI [6] was 21 µM. The GI50 [7] was 2.43 µM, the TGI [7] was 10 µM and the GI50 [8] was 2.15 µM. The TGI [8] was 9.26 µM, the GI50 [9] was 2.44 µM and the TGI [9] was 10.6 µM. It also gave a GI50 [10] of 1.07 µM and a TGI [10] of 7.72 µM.
Compound `CS(=O)(=O)c1ccc(-c2cnc(N)c(C(=O)Nc3ccccc3)n2)cc1` has a GI50 [1] of 22.6 µM, a TGI [1] greater than 100 µM and a GI50 [2] of 5.45 µM. It also gave a TGI [2] greater than 42.8 µM, a GI50 [3] greater than 100 µM and a TGI [3] greater than 100 µM. It also gave a GI50 [4] of 6.81 µM, a TGI [4] greater than 100 µM and a GI50 [5] of 24.2 µM. It also gave a TGI [5] greater than 100 µM, a GI50 [6] of 7.87 µM and a TGI [6] greater than 96 µM. It also gave a GI50 [7] of 6.81 µM, a TGI [7] greater than 100 µM and a GI50 [8] of 15.7 µM. The TGI [8] was greater than 100 µM, the GI50 [9] was 8.35 µM and the TGI [9] was greater than 100 µM. It also gave a GI50 [10] greater than 54.8 µM and a TGI [10] greater than 100 µM.
